Source: ChEMBL document CHEMBL1201862, “PubChem BioAssay data set” (2004)
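Briefly, cells in 96-well plates were exposed to five compound concentrations for 48 h, and endpoints were estimated by linear interpolation. GI50 is the concentration that inhibits growth by half.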 The source made the active and inactive calls. Rule as the data show it: active = GI50 up to about 1.1 µM and inactive = higher. Starred links: 1 amine or outer side, 2 acyl side, 3 side chain; linkers in the order of their positions; H or OH if unused. Non-standard residues stand in square brackets, D forms with d. Residues, ends and D or L forms follow the SMILES beside them. ξ: configuration not given here. X24 = O=C(C(CC(O)CO)O[*:1])[*:2]; Ile(3ξ) = CCC(C)[C@H](N)C(=O)O; NMeV = CN[C@H](C(=O)O)C(C)C; NMeA = CN[C@@H](C)C(=O)O; βAla = NCCC(=O)O

Legend:
Experiment in all cases: growth of human tumour cells (NCI), 48 h
[1] = test system: CCRF-CEM
[2] = test system: SK-MEL-28
[3] = test system: LOX IMVI
[4] = test system: SNB-75
[5] = test system: U-251
[6] = test system: MOLT-4
[7] = test system: IGROV-1
[8] = test system: KM-20L2
[9] = test system: NCI-H460
[10] = test system: OVCAR-5
[11] = test system: UACC-62
[12] = test system: SK-MEL-5
[13] = test system: UO-31
[14] = test system: COLO 205
[15] = test system: HCC 2998
[16] = test system: HCT-116
[17] = test system: RXF 631
[18] = test system: 786-0
[19] = test system: XF498
[20] = test system: OVCAR-4
[21] = test system: K562
[22] = test system: ACHN
[23] = test system: SNB-19
[24] = test system: KM12
[25] = test system: EKVX
[26] = test system: OVCAR-8
[27] = test system: NCI-H522
[28] = test system: SN12C
[29] = test system: SW-620
[30] = test system: SK-MEL-2
[31] = test system: OVCAR-3
[32] = test system: TK-10
[33] = test system: HCT-15
[34] = test system: LXFL 529
[35] = test system: Malme-3M
[36] = test system: SNB-78
[37] = test system: DLD-1
[38] = test system: M14
[39] = test system: A549
[40] = test system: A498
[41] = test system: SK-OV-3
[42] = test system: DMS-273
[43] = test system: SF-539
[44] = test system: HT-29
[45] = test system: HOP-62
[46] = test system: HOP-92
[47] = test system: RPMI-8226
[48] = test system: NCI-H23
[49] = test system: SF-295
[50] = test system: SF-268
[51] = test system: UACC-257
[52] = test system: NCI-H226
[53] = test system: M19-MEL
[54] = test system: CAKI-1
[55] = test system: SR
[56] = test system: HL-60
[57] = test system: RXF 393
[58] = test system: HOP-18
[59] = test system: DMS-114

Structure (SMILES): O=C(O)c1c2c(cc3c(=O)cc(-c4ccccc4)oc13)CCCC2
- GI50 [1]: > 100 µM (inactive)
- GI50 [2]: > 100 µM (inactive)
- GI50 [3]: > 100 µM (inactive)
- GI50 [4]: 6.59 µM (inactive)
- GI50 [5]: > 100 µM (inactive)
- GI50 [6]: > 100 µM (inactive)
- GI50 [7]: > 100 µM (inactive)
- GI50 [8]: > 100 µM (inactive)
- GI50 [9]: > 100 µM (inactive)
- GI50 [10]: > 100 µM (inactive)
- GI50 [11]: > 100 µM (inactive)
- GI50 [12]: > 100 µM (inactive)
- GI50 [13]: > 100 µM (inactive)
- GI50 [14]: > 100 µM (inactive)
- GI50 [15]: > 100 µM (inactive)
- GI50 [16]: > 100 µM (inactive)
- GI50 [17]: > 100 µM (inactive)
- GI50 [18]: > 100 µM (inactive)
- GI50 [19]: > 100 µM (inactive)
- GI50 [20]: > 100 µM (inactive)
- GI50 [21]: > 100 µM (inactive)
- GI50 [22]: > 100 µM (inactive)
- GI50 [23]: > 100 µM (inactive)
- GI50 [24]: > 100 µM (inactive)
- GI50 [25]: > 100 µM (inactive)
- GI50 [26]: > 100 µM (inactive)
- GI50 [27]: 71.4 µM (inactive)
- GI50 [28]: > 100 µM (inactive)
- GI50 [29]: > 100 µM (inactive)
- GI50 [30]: > 100 µM (inactive)
- GI50 [31]: > 100 µM (inactive)
- GI50 [32]: > 100 µM (inactive)
- GI50 [33]: > 100 µM
- GI50 [34]: > 100 µM (inactive)
- GI50 [35]: > 100 µM (inactive)
- GI50 [36]: > 100 µM (inactive)
- GI50 [37]: > 100 µM (inactive)
- GI50 [38]: > 100 µM (inactive)
- GI50 [39]: > 100 µM (inactive)
- GI50 [40]: > 100 µM (inactive)
- GI50 [41]: > 100 µM (inactive)
- GI50 [42]: > 100 µM (inactive)
- GI50 [43]: > 100 µM (inactive)
- GI50 [44]: > 100 µM (inactive)
- GI50 [45]: > 100 µM (inactive)
- GI50 [46]: > 100 µM (inactive)
- GI50 [47]: > 100 µM (inactive)
- GI50 [48]: > 100 µM (inactive)
- GI50 [49]: > 100 µM (inactive)
- GI50 [50]: > 100 µM (inactive)
- GI50 [51]: > 100 µM (inactive)

Structure (SMILES): CCC(C)[C@@H]1NC(=O)[C@@H]2CCCN2C(=O)C(CC(O)CO)OC(=O)CCNC(=O)[C@H](C)N(C)C(=O)[C@H](C(C)C)N(C)C1=O (stereo partly specified) (cyclo([Ile(3ξ)][NMeV][NMeA][βAla][X24]P))
- GI50 [1]: 35.8 µM (inactive)
- GI50 [2]: > 100 µM (inactive)
- GI50 [3]: 84.5 µM (inactive)
- GI50 [4]: > 100 µM (inactive)
- GI50 [52]: > 100 µM (inactive)
- GI50 [5]: > 100 µM (inactive)
- GI50 [6]: 43.1 µM (inactive)
- GI50 [7]: > 100 µM (inactive)
- GI50 [8]: > 100 µM (inactive)
- GI50 [9]: > 100 µM (inactive)
- GI50 [10]: > 100 µM (inactive)
- GI50 [11]: > 100 µM (inactive)
- GI50 [53]: > 100 µM (inactive)
- GI50 [12]: > 100 µM (inactive)
- GI50 [13]: > 100 µM (inactive)
- GI50 [14]: > 100 µM (inactive)
- GI50 [16]: > 100 µM (inactive)
- GI50 [17]: > 100 µM (inactive)
- GI50 [18]: > 100 µM (inactive)
- GI50 [19]: > 100 µM (inactive)
- GI50 [54]: > 100 µM (inactive)
- GI50 [20]: > 100 µM (inactive)
- GI50 [21]: > 100 µM (inactive)
- GI50 [23]: > 100 µM (inactive)
- GI50 [24]: > 100 µM (inactive)
- GI50 [26]: > 100 µM (inactive)
- GI50 [28]: > 100 µM (inactive)
- GI50 [29]: > 100 µM (inactive)
- GI50 [30]: > 100 µM (inactive)
- GI50 [31]: > 100 µM (inactive)
- GI50 [32]: > 100 µM (inactive)
- GI50 [55]: > 100 µM (inactive)
- GI50 [33]: > 100 µM
- GI50 [56]: > 100 µM (inactive)
- GI50 [34]: 44.6 µM (inactive)
- GI50 [35]: > 100 µM (inactive)
- GI50 [36]: > 100 µM (inactive)
- GI50 [37]: > 100 µM (inactive)
- GI50 [38]: > 100 µM (inactive)
- GI50 [39]: > 100 µM (inactive)
- GI50 [40]: > 100 µM (inactive)
- GI50 [41]: > 100 µM (inactive)
- GI50 [42]: > 100 µM (inactive)
- GI50 [43]: > 100 µM (inactive)
- GI50 [44]: > 100 µM (inactive)
- GI50 [45]: > 100 µM (inactive)
- GI50 [46]: > 100 µM (inactive)
- GI50 [47]: > 100 µM (inactive)
- GI50 [48]: > 100 µM (inactive)
- GI50 [49]: 91 µM (inactive)
- GI50 [57]: > 100 µM (inactive)
- GI50 [50]: > 100 µM (inactive)
- GI50 [51]: > 100 µM (inactive)

Structure (SMILES): N=C(N)NS(=O)(=O)c1ccc(Nc2c3ccccc3nc3c(C(=O)N4CCN(CCO)CC4)cccc23)cc1
- GI50 [1]: > 100 µM (inactive)
- GI50 [2]: > 100 µM (inactive)
- GI50 [3]: > 100 µM (inactive)
- GI50 [4]: > 100 µM (inactive)
- GI50 [52]: > 100 µM (inactive)
- GI50 [5]: > 100 µM (inactive)
- GI50 [6]: > 100 µM (inactive)
- GI50 [7]: > 100 µM (inactive)
- GI50 [8]: > 100 µM (inactive)
- GI50 [9]: > 100 µM (inactive)
- GI50 [10]: > 100 µM (inactive)
- GI50 [11]: > 100 µM (inactive)
- GI50 [53]: > 100 µM (inactive)
- GI50 [12]: > 100 µM (inactive)
- GI50 [13]: > 100 µM (inactive)
- GI50 [14]: > 100 µM (inactive)
- GI50 [15]: > 100 µM (inactive)
- GI50 [16]: > 100 µM (inactive)
- GI50 [18]: > 100 µM (inactive)
- GI50 [19]: > 100 µM (inactive)
- GI50 [54]: > 100 µM (inactive)
- GI50 [58]: > 100 µM (inactive)
- GI50 [20]: > 100 µM (inactive)
- GI50 [21]: > 100 µM (inactive)
- GI50 [22]: > 100 µM (inactive)
- GI50 [23]: > 100 µM (inactive)
- GI50 [24]: > 100 µM (inactive)
- GI50 [25]: > 100 µM (inactive)
- GI50 [26]: > 100 µM (inactive)
- GI50 [27]: > 100 µM (inactive)
- GI50 [28]: > 100 µM (inactive)
- GI50 [29]: > 100 µM (inactive)
- GI50 [30]: > 100 µM (inactive)
- GI50 [31]: > 100 µM (inactive)
- GI50 [32]: > 100 µM (inactive)
- GI50 [55]: > 100 µM (inactive)
- GI50 [33]: > 100 µM
- GI50 [56]: > 100 µM (inactive)
- GI50 [34]: > 100 µM (inactive)
- GI50 [35]: > 100 µM (inactive)
- GI50 [36]: > 100 µM (inactive)
- GI50 [37]: > 100 µM (inactive)
- GI50 [38]: > 100 µM (inactive)
- GI50 [39]: > 100 µM (inactive)
- GI50 [40]: > 100 µM (inactive)
- GI50 [41]: 2.7 µM (inactive)
- GI50 [42]: > 100 µM (inactive)
- GI50 [43]: > 100 µM (inactive)
- GI50 [44]: > 100 µM (inactive)
- GI50 [45]: > 100 µM (inactive)
- GI50 [46]: > 100 µM (inactive)
- GI50 [59]: > 100 µM (inactive)
- GI50 [48]: > 100 µM (inactive)
- GI50 [49]: > 100 µM (inactive)
- GI50 [57]: > 100 µM (inactive)
- GI50 [50]: > 100 µM (inactive)
- GI50 [51]: > 100 µM (inactive)
